Experimental data published in US10421718B2, “EBNA1 inhibitors and their method of use” (priority 2013, dated 2019).

Target: T1, His-EBNA1 (DNA binding domain of EBNA1, amino acids 459-607) (Epstein-Barr virus, UniProt P03211)
T1 construct: made in house; host or cells: E. coli
Assay: Inhibition of 5′-biotin-oPL4624 binding to His-EBNA1 using Alpha Screen technology
Conditions: Alpha Screen Activity (IC50, inhibition of 5′-biotin-oPL4624 binding to His-EBNA1), 15 nM His-EBNA1, 0.2 nM bt-oPL4624, 2 hr room temperature
Outline: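 AlphaScreen signal (680 nm ex, 570 nm em) after a 2-h room-temperature incubation, normalized to no-EBNA1 (100% inhibition) and EBNA1 (0%) values and fit to a one-site curve. Final conditions: 15 nM His-EBNA1 (aa 459-607), 0.2 nM bt-oPL4624, Tris pH 7.2 buffer with 160 mM NaCl, compound 3.2 nM to 100 μM.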

T1 sequence (P03211 459-607): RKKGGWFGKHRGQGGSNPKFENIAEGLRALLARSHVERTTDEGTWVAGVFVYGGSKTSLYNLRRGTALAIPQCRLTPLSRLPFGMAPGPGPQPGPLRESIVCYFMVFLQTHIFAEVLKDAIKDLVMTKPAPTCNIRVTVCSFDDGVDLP

`CN(C)c1ccc(-c2c(C#Cc3ccccc3)cccc2C(=O)O)cn1` [Entry 127, 2-[6-(dimethylamino)pyridin-3-yl]-3-(2-phenylethynyl)benzoic acid] was tested, and the IC50 was 10 to 100 µM.

`O=C(O)c1cccc(C#Cc2ccccc2)c1-c1cccc(CO)c1` [Entry 128, 2-[3-(hydroxymethyl)phenyl]-3-(2-phenylethynyl)benzoic acid] was tested, and the IC50 was 10 to 100 µM.

With `O=C(O)c1cccc(C#Cc2ccccc2)c1-c1ccc2cc[nH]c2c1` [Entry 129, 2-(1H-indol-6-yl)-3-(2-phenylethynyl)benzoic acid] the IC50 was < 1 µM.

Work on `O=C(O)c1cccc(C#Cc2ccccc2)c1-c1ccc(CO)cc1` [Entry 130, 2-[4-(hydroxymethyl)phenyl]-3-(2-phenylethynyl)benzoic acid] yielded an IC50 of 10 to 100 µM.

`O=C(O)c1cccc(C#Cc2ccccc2)c1-c1ccc2occc2c1` [Entry 131, 2-(1-benzofuran-5-yl)-3-(2-phenylethynyl)benzoic acid] gave an IC50 of 10 to 100 µM.

In the case of `O=C(O)c1cccc(C#Cc2ccccc2)c1-c1ccc2sccc2c1` [Entry 132, 2-(1-benzothiophen-5-yl)-3-(2-phenylethynyl)benzoic acid], the IC50 is reported as 10 to 100 µM.

`Cn1ccc2cc(-c3c(C#Cc4ccccc4)cccc3C(=O)O)ccc21` [Entry 133, 2-(1-methyl-1H-indol-5-yl)-3-(2-phenylethynyl)benzoic acid] was tested, and the IC50 was 1 to 10 µM.

In the case of `CS(=O)(=O)Nc1cccc(-c2c(C#Cc3ccccc3)cccc2C(=O)O)c1` [Entry 134, 2-(3-methanesulfonamidophenyl)-3-(2-phenylethynyl)benzoic acid], the IC50 is reported as 1 to 10 µM.

With `O=C(O)c1cccc(C#Cc2ccccc2)c1-c1ccc2ccccc2c1` [Entry 135, 2-(naphthalen-2-yl)-3-(2-phenylethynyl)benzoic acid] the IC50 was 1 to 10 µM.

For `Cn1ccc2ccc(-c3c(C#Cc4ccccc4)cccc3C(=O)O)cc21` [Entry 136, 2-(1-methyl-1H-indol-6-yl)-3-(2-phenylethynyl)benzoic acid], the IC50 was 1 to 10 µM.

In the case of `O=C(O)c1cccc(C#Cc2ccccc2)c1-c1ccccc1S(=O)(=O)NCCO` [Entry 137, 2-{2-[(2-hydroxyethyl)sulfamoyl]phenyl}-3-(2-phenylethynyl)benzoic acid], the IC50 is reported as 10 to 100 µM.

`O=C(NC1CC1)c1ccc(-c2c(C#Cc3ccccc3)cccc2C(=O)O)cc1` [Entry 138, 2-[4-(cyclopropylcarbamoyl)phenyl]-3-(2-phenylethynyl)benzoic acid] showed an IC50 of 10 to 100 µM.

Molecule `Cn1ncc2ccc(-c3c(C#Cc4ccccc4)cccc3C(=O)O)cc21` [Entry 139, 2-(1-methyl-1H-indazol-6-yl)-3-(2-phenylethynyl)benzoic acid] has an IC50 of 10 to 100 µM.

For `O=C(O)c1cccc(C#Cc2cccc(O)c2)c1-c1cnc2ccccc2c1` [Entry 140, 3-((3-hydroxyphenyl)ethynyl)-2-(quinolin-3-yl)benzoic acid], the IC50 was 1 to 10 µM.

With `O=C(O)c1cccc(C#CCCCO)c1-c1cnc2ccccc2c1` [Entry 141, 3-(5-hydroxypent-1-ynyl)-2-(quinolin-3-yl)benzoic acid] the IC50 was 10 to 100 µM.

Work on `COc1ccc(C#Cc2cccc(C(=O)O)c2-c2cnc3ccccc3c2)cc1` [Entry 142, 3-((4-methoxyphenyl)ethynyl)-2-(quinolin-3-yl)benzoic acid] yielded an IC50 of 10 to 100 µM.

With `O=C(O)c1cccc(C#Cc2cnc3cnccn23)c1-c1cnc2ccccc2c1` [Entry 143, 3-(imidazo[1,2-a]pyrazin-3-ylethynyl)-2-(quinolin-3-yl)benzoic acid] the IC50 was 1 to 10 µM.

`COC/C=C/c1cccc(C(=O)O)c1-n1cccc1` [Entry 144, 3-[(1E)-3-methoxyprop-1-en-1-yl]-2-(1H-pyrrol-1-yl)benzoic acid] gave an IC50 of 1 to 10 µM.

`O=C(O)c1cccc(/C=C/c2ccccc2)c1-n1cccc1` [Entry 145, 3-[(E)-2-phenylethenyl]-2-(1H-pyrrol-1-yl)benzoic acid] was tested, and the IC50 was 10 to 100 µM.

With `O=C(O)c1cccc(/C=C/c2ccc(F)cc2)c1-n1cccc1` [Entry 146, 3-[(E)-2-(4-fluorophenyl)ethenyl]-2-(1H-pyrrol-1-yl)benzoic acid] the IC50 was 10 to 100 µM.

In the case of `O=C(O)c1cccc(CCc2ccccc2)c1-n1cccc1` [Entry 147, 3-(2-phenylethyl)-2-(1H-pyrrol-1-yl)benzoic acid], the IC50 is reported as 10 to 100 µM.

With `O=C(O)c1cccc(CCc2ccccc2)c1N1CCCC1` [Entry 148, 3-(2-phenylethyl)-2-(pyrrolidin-1-yl)benzoic acid] the IC50 was 10 to 100 µM.

With `O=C(O)c1cccc(CCc2ccc(F)cc2)c1-n1cccc1` [Entry 149, 3-[2-(4-fluorophenyl)ethyl]-2-(1H-pyrrol-1-yl)benzoic acid] the IC50 was 10 to 100 µM.

In the case of `O=C(O)c1cccc(C#Cc2ccccc2)c1-c1ccc2nc[nH]c2c1` [Entry 150, 2-(1H-1,3-benzodiazol-6-yl)-3-(2-phenylethynyl)benzoic acid], the IC50 is reported as 10 to 100 µM.

With `NS(=O)(=O)c1cccc(C#Cc2ccccc2)c1-n1cccc1` [Entry 152, 3-Phenylethynyl-2-pyrrol-1-yl-benzenesulfonamide] the IC50 was 1 to 10 µM.

Molecule `CC(=O)NS(=O)(=O)c1cccc(C#Cc2ccccc2)c1-n1cccc1` [Entry 153, N-Acetyl-3-phenylethynyl-2-pyrrol-1-yl-benzenesulfonamide] has an IC50 of 10 to 100 µM.

For `Cc1noc(C)c1-c1c(C#Cc2ccccc2)cccc1C(=O)O` [Entry 154, 2-(dimethyl-1,2-oxazol-4-yl)-3-(2-phenylethynyl)benzoic acid], the IC50 was 1 to 10 µM.

In the case of `O=C(O)c1cccc(C#Cc2ccccc2)c1OCc1ccccc1` [Entry 155, 2-(benzyloxy)-3-(2-phenylethynyl)benzoic acid], the IC50 is reported as 10 to 100 µM.

Work on `COC(=O)c1c[nH]c2cc(-c3c(C#Cc4ccccc4)cccc3C(=O)O)ccc12` [Entry 156, 2-[3-(methoxycarbonyl)-1H-indol-6-yl]-3-(2-phenylethynyl)benzoic acid] yielded an IC50 of 1 to 10 µM.

For `O=C(O)c1cccc(C#CCNCc2ccccc2)c1-c1ccccc1` [Entry 157, 3-[3-(benzylamino)prop-1-yn-1-yl]-2-phenylbenzoic acid], the IC50 was 10 to 100 µM.

For `O=C(O)c1cccc(C#CCNCCCn2ccnc2)c1-c1ccccc1` [Entry 158, 3-(3-{[3-(1H-imidazol-1-yl)propyl]amino}prop-1-yn-1-yl)-2-phenylbenzoic acid], the IC50 was 10 to 100 µM.

`O=C(O)c1cccc(C#CCN2CCN(c3ccccc3)CC2)c1-c1ccccc1` [Entry 159, 2-phenyl-3-[3-(4-phenylpiperazin-1-yl)prop-1-yn-1-yl]benzoic acid] showed an IC50 of 10 to 100 µM.

Molecule `O=C(O)c1cccc(C#CCN2CCCC2)c1-c1ccccc1` [Entry 160, 2-phenyl-3-[3-(pyrrolidin-1-yl)prop-1-yn-1-yl]benzoic acid] has an IC50 of 10 to 100 µM.

For `O=C(O)c1cccc(C#CCO)c1-c1ccccc1` [Entry 161, 3-(3-hydroxyprop-1-yn-1-yl)-2-phenylbenzoic acid], the IC50 was 100 to 1000 µM.

`NCc1cccc(C#Cc2cccc(C(=O)O)c2-n2cccc2)c1` [Entry 162, 3-{2-[3-(Aminomethyl)phenyl]ethynyl}-2-(1H-pyrrol-1-yl)benzoic acid] showed an IC50 of 1 to 10 µM.

In the case of `O=C(O)c1cccc(C#Cc2cccc(CNS(=O)(=O)c3cc(F)cc(F)c3)c2)c1-n1cccc1` [Entry 163, 3-{2-[3-(3,5-difluorobenzenesulfonamidomethyl)phenyl]ethynyl}-2-(1H-pyrrol-1-yl)benzoic acid], the IC50 is reported as 1 to 10 µM.

`Cc1ncc(S(=O)(=O)NCc2ccc(C#Cc3cccc(C(=O)O)c3-n3cccc3)cc2)n1C` [Entry 164] gave an IC50 of 1 to 10 µM.
